Measurements published in US20200060273A1, “FUNGICIDAL COMPOSITIONS” (Novus International, Inc., priority 2018, published 2020).
Where two headings read alike, the source gives them in different places.

What was measured:
[1] = system: Podosphaera xanthii (powdery mildew); assay: in vitro leaf disc assay on cucumber cotyledons; assay type: cell-based
Botrytis cinerea = assay: in vitro mycelial disc assay; assay type: cell-based
Fusarium graminearum = assay type: cell-based
lettuce = details: in vivo
Procedure: (§1) These experiments were carried out to test the phytotoxic effects of HMTBA on cucurbit (cucumber), strawberry, pepper, and lettuce target crops. Young plants of Jackson Classic variety cucumber, Tango variety head lettuce, Compadre variety bell pepper, and Festival variety strawberry were grown under standard greenhouse conditions. One week-post planting cucumber and pepper plants, three week old lettuce, and four month old strawberry plants were treated.
(§2) Foliar sprays for HMTBA dilutions at 0.01, 0.1, 0.2 and 1.0% ai/v were applied twice per week for two weeks (total of four applications).
(§3) Height and width for each plant was measured (centimeters) for indication of growth changes between treated and untreated plants. Phytotoxicity ratings were taken weekly on a 0-10 scale, where 0 indicates no crop injury and 10 is damage (yellowing, scarring, wilting, necrosis, death) to the total plant from the treatment.
(§4) Area Under Disease Progress Curve (AUDPC), Abbot's formulation for percent control and all statistics were analyzed using ANOVA mean comparison with LSD test and a=0.05. Bartlett's test for homogeneity of variances was used to determine the need for data transformations. Letters in tables represent means separation significant and 0.05.

cucumber = details: in vivo
Procedure: as §1, §2, §3, §4

strawberry = details: in vivo
Procedure: as §1, §2, §3, §4

pepper = details: in vivo
Procedure: as §1, §2, §3, §4

CO/C=C(/C(=O)OC)c1ccccc1Oc1cc(Oc2ccccc2C#N)ncn1 [Azoxystrobin, azoxystrobin]
P. xanthii % Control ([1]; Azoxystrobin 0.00001% ai/v): 17.66% de
Pest Severity Score 0-4 ([1]; Azoxystrobin 0.00001% ai/v): 2.67 ab
P. xanthii % Control ([1]; Azoxystrobin 0.0001% ai/v): 44.23% c
Pest Severity Score 0-4 ([1]; Azoxystrobin 0.0001% ai/v): 1.75 c
P. xanthii % Control ([1]; Azoxystrobin 0.1% ai/v): 97.62% a
Pest Severity Score 0-4 ([1]; Azoxystrobin 0.1% ai/v): 0.08 e

O=C1C2CC=CCC2C(=O)N1SC(Cl)(Cl)Cl (stereo not shown) [Captan, captan]
B. cinerea Mycelial Growth % Control (Botrytis cinerea; Captan 0.001% ai/v): 21.05% cd
B. cinerea Mycelial Growth Diameter (cm) (Botrytis cinerea; Captan 0.001% ai/v): 1.68 bc cm
B. cinerea Mycelial Growth % Control (Botrytis cinerea; Captan 0.01% ai/v): 53.68% b
B. cinerea Mycelial Growth Diameter (cm) (Botrytis cinerea; Captan 0.01% ai/v): 0.97 cm·days
B. cinerea Mycelial Growth % Control (Botrytis cinerea; Captan 1% ai/v): 96.81% a
B. cinerea Mycelial Growth Diameter (cm) (Botrytis cinerea; Captan 1% ai/v): 0.07 e cm

CSCCC(O)C(=O)O (stereo not shown) [HMTBA, 2-hydroxy-4(methylthio)butanoic acid]
F. graminiearum % Control (Fusarium graminearum; 0.1% HMTBA): 4.93% ef
Spore Diameter (cm) (Fusarium graminearum; 0.1% HMTBA): 1.47 a cm
phytotoxic effects (lettuce): no phytotoxic effects were recorded
plant growth (height and width) (lettuce): unchanged from the untreated check
P. xanthii % Control ([1]; 0.1% HMTBA): 4.46% ef
Pest Severity Score 0-4 ([1]; 0.1% HMTBA): 3.17 a
phytotoxic effects (cucumber): no phytotoxic effects were recorded
plant growth (height and width) (cucumber): unchanged from the untreated check
B. cinerea Mycelial Growth % Control (Botrytis cinerea; 0.1% HMTBA): 10.08% de
B. cinerea Mycelial Growth Diameter (cm) (Botrytis cinerea; 0.1% HMTBA): 2.03 ab cm
Strawberry Phytotoxicity Rating (0-10) (strawberry; Festival variety, strawberry): 0.0 a
phytotoxic effects (strawberry): no phytotoxic effects were recorded
plant growth (height and width) (strawberry): unchanged from the untreated check
Pepper Phytotoxicity Rating (0-10) (pepper; Compadre variety, pepper): 0.0 a
phytotoxic effects (pepper): no phytotoxic effects were recorded
plant growth (height and width) (pepper): unchanged from the untreated check

CC1(C)CCC(Cc2ccc(Cl)cc2)C1(O)Cn1cncn1 (stereo not shown) [Metconazole, metconazole]
F. graminiearum % Control (Fusarium graminearum; Metconazole 0.001% ai/v): 27.80% cde
Spore Diameter (cm) (Fusarium graminearum; Metconazole 0.001% ai/v): 1.00 b cm
F. graminiearum % Control (Fusarium graminearum; Metconazole 0.01% ai/v): 66.98% ab
Spore Diameter (cm) (Fusarium graminearum; Metconazole 0.01% ai/v): 0.50 cd cm
F. graminiearum % Control (Fusarium graminearum; Metconazole 1% ai/v): 93.08% a
Spore Diameter (cm) (Fusarium graminearum; Metconazole 1% ai/v): 0.17 cm·days
